Assays:
Assay type in all cases: biochemical
IDH1 (R132C) = IDH1 (R132C) (Homo sapiens, UniProt O75874, R132C); assay: IDH enzyme assay, NADPH depletion by diaphorase/resazurin coupled detection; conditions: pre-incubated with enzyme for 1 h at room temperature; 500 μM a-Ketoglutarate+15 μM NADPH; 10-dose, 3-fold dilution from 10 μM; read-out: Compound IC50 (nM) IDH1 (R132C)
Protocol: (§1) Compounds were tested against 3 enzymes, as provided below. Compounds were tested in 10-dose IC50 mode with 3-fold serial dilution at a starting concentration of 10 μM. Control Compounds were tested in 10-dose IC50 mode with 3-fold serial dilution starting at 1 mM or 10 mM. Assay Format: The production or depletion of NADPH by IDH enzymes was measured by diaphorase/resazurin coupled detection. Fluorescence measurement: Ex/Em=535/590 by EnVision. Compounds were pre-incubated with enzyme for 1 h at room temperature. Standard substrate: 1500 μM a-Ketoglutarate+15 μM NADPH for IDH1 (R132H). 500 μM a-Ketoglutarate+15 μM NADPH for IDH1 (R132C). 65 μM Isocitrate+50 μM NADP for IDH1.

IDH1 (R132H) = IDH1 (R132H) (Homo sapiens, UniProt O75874, R132H); assay: as above; conditions: pre-incubated with enzyme for 1 h at room temperature; 1500 μM a-Ketoglutarate+15 μM NADPH; 10-dose, 3-fold dilution from 10 μM; read-out: Compound IC50 (nM) IDH1 (R132H)
Sequence of IDH1 (R132H) (O75874 whole entry R132H): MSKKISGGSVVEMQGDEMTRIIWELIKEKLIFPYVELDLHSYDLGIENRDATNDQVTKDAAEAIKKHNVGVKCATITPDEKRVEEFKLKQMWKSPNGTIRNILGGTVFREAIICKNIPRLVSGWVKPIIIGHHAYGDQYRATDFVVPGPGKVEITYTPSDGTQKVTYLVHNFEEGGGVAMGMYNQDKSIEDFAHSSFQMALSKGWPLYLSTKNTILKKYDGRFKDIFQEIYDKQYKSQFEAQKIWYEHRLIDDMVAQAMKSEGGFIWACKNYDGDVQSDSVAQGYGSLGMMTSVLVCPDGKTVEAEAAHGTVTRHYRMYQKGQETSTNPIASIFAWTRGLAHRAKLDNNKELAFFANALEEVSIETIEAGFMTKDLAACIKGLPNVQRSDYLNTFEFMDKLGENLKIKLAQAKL
Protocol: as §1

IDH1 = IDH1 (Homo sapiens, UniProt O75874); assay: IDH enzyme assay, NADPH production by diaphorase/resazurin coupled detection; conditions: IDH1 WT; pre-incubated with enzyme for 1 h at room temperature; 65 μM Isocitrate+50 μM NADP; 10-dose, 3-fold dilution from 10 μM; read-out: Compound IC50 (nM) IDH1
Sequence of IDH1 (O75874 whole entry): as the sequence (O75874 whole entry R132H) above, with H132R counted along it
Protocol: as §1

Sequence of IDH1 (R132C) (O75874 whole entry R132C): as the sequence (O75874 whole entry R132H) above, with H132C counted along it

| SMILES | IC50 (IDH1 (R132C)) [nM] | IC50 (IDH1 (R132H)) [nM] | IC50 (IDH1) [nM] |
| --- | --- | --- | --- |
| C=CC(=O)Nc1ccc(NC(=O)c2nn(Cc3ccc(F)cc3)c3c2CN(C(=O)c2ccc[nH]2)CC3C)cc1 (stereo not shown) [ISO-2-25, N-(4-acrylamidophenyl)-1-(4-fluorobenzyl)-7-methyl-5-(1H-pyrrole-2-carbonyl)-4,5,6,7-tetrahydro-1H-pyrazolo[4,3-c]pyridine-3-carboxamide] | 0.8 | 0.6 | 5740 |
| C=CC(=O)Nc1cc(F)ccc1Cn1nc(C(=O)Nc2cccc([C@H](C)O)c2)c2c1C(C)CN(C(=O)c1ccc[nH]1)C2 (stereo partly drawn) [ISO-2-7, 1-(2-acrylamido-4-fluorobenzyl)-N-(3-((S)-1-hydroxyethyl)phenyl)-7-methyl-5-(1H-pyrrole-2-carbonyl)-4,5,6,7-tetrahydro-1H-pyrazolo[4,3-c]pyridine-3-carboxamide] | 247 | 153 | > 10000 |
| C=CC(=O)NCc1cc(F)ccc1Cn1nc(C(=O)Nc2cccc([C@H](C)O)c2)c2c1C(C)CN(C(=O)c1ccc[nH]1)C2 (stereo partly drawn) [ISO-2-8, 1-(2-(acrylamidomethyl)-4-fluorobenzyl)-N-(3-((S)-1-hydroxyethyl)phenyl)-7-methyl-5-(1H-pyrrole-2-carbonyl)-4,5,6,7-tetrahydro-1H-pyrazolo[4,3-c]pyridine-3-carboxamide] | 154 | 52 | > 10000 |
| C=CC(=O)NCc1cc(Cn2nc(C(=O)Nc3cccc(C)c3)c3c2C(C)CN(C(=O)c2ccc[nH]2)C3)ccc1F (stereo not shown) [ISO-2-2, 1-(3-(acrylamidomethyl)-4-fluorobenzyl)-7-methyl-5-(1H-pyrrole-2-carbonyl)-N-(m-tolyl)-4,5,6,7-tetrahydro-1H-pyrazolo[4,3-c]pyridine-3-carboxamide] | 152 | 33 | > 10000 |
| C=CC(=O)N1CCC(NC(=O)c2nn(Cc3ccc(F)cc3)c3c2CN(C(=O)c2ccc[nH]2)CC3C)C1 (stereo not shown) [ISO-2-9, N-(1-acryloylpyrrolidin-3-yl)-1-(4-fluorobenzyl)-7-methyl-5-(1H-pyrrole-2-carbonyl)-4,5,6,7-tetrahydro-1H-pyrazolo[4,3-c]pyridine-3-carboxamide] | > 10000 | > 10000 | > 10000 |
| C=CC(=O)Nc1cc(Cn2nc(C(=O)Nc3cccc([C@H](C)O)c3)c3c2C(C)CN(C(=O)c2ccc[nH]2)C3)ccc1F (stereo partly drawn) [ISO-2-3, 1-(3-acrylamido-4-fluorobenzyl)-N-(3-((S)-1-hydroxyethyl)phenyl)-7-methyl-5-(1H-pyrrole-2-carbonyl)-4,5,6,7-tetrahydro-1H-pyrazolo[4,3-c]pyridine-3-carboxamide] | 77 | 34 | ≥ 10000 |
| C=CC(=O)Nc1cccc(NC(=O)c2nn(Cc3ccc(F)cc3)c3c2CN(C(=O)c2ccc[nH]2)CC3C)c1 (stereo not shown) [ISO-2-4, N-(3-acrylamidophenyl)-1-(4-fluorobenzyl)-7-methyl-5-(1H-pyrrole-2-carbonyl)-4,5,6,7-tetrahydro-1H-pyrazolo[4,3-c]pyridine-3-carboxamide] | 121 | 49 | > 10000 |
| C=CC(=O)N1CCCC(NC(=O)c2nn(Cc3ccc(F)cc3)c3c2CN(C(=O)c2ccc[nH]2)CC3C)C1 (stereo not shown) [ISO-2-6, N-(1-acryloylpiperidin-3-yl)-1-(4-fluorobenzyl)-7-methyl-5-(1H-pyrrole-2-carbonyl)-4,5,6,7-tetrahydro-1H-pyrazolo[4,3-c]pyridine-3-carboxamide] | > 10000 | > 10000 | > 10000 |
| C=CC(=O)N1CC(NC(=O)c2nn(Cc3ccc(F)cc3)c3c2CN(C(=O)c2ccc[nH]2)CC3C)C1 (stereo not shown) [ISO-2-10, N-(1-acryloylazetidin-3-yl)-1-(4-fluorobenzyl)-7-methyl-5-(1H-pyrrole-2-carbonyl)-4,5,6,7-tetrahydro-1H-pyrazolo[4,3-c]pyridine-3-carboxamide] | 9500 | > 10000 | > 10000 |
| C=CC(=O)Nc1cc(Cn2nc(C(=O)Nc3cccc(C)c3)c3c2C(C)CN(C(=O)c2ccc[nH]2)C3)ccc1F (stereo not shown) [ISO-2-1, 1-(3-acrylamido-4-fluorobenzyl)-7-methyl-5-(1H-pyrrole-2-carbonyl)-N-(m-tolyl)-4,5,6,7-tetrahydro-1H-pyrazolo[4,3-c]pyridine-3-carboxamide] | 35 | 18 | > 10000 |
| CC1CN(C(=O)c2ccc[nH]2)Cc2c(C(=O)Nc3cccc(NC(=O)CCl)c3)nn(Cc3ccc(F)cc3)c21 (stereo not shown) [ISO-2-5, N-(3-(2-chloroacetamido)phenyl)-1-(4-fluorobenzyl)-7-methyl-5-(1H-pyrrole-2-carbonyl)-4,5,6,7-tetrahydro-1H-pyrazolo [4,3-c]pyridine-3-carboxamide] | 2 | 3 | > 10000 |

Further lines, results first:

| IC50 (IDH1 (R132C)) [nM] | IC50 (IDH1 (R132H)) [nM] | IC50 (IDH1) [nM] | SMILES |
| --- | --- | --- | --- |
| 7500 | 3150 | – | C=CC(=O)Nc1cccc(CNC(=O)c2nn(Cc3ccc(F)cc3)c3c2CN(C(=O)c2ccc[nH]2)CC3C)c1 (stereo not shown) [ISO-2-32, N-(3-acrylamidobenzyl)-1-(4-fluorobenzyl)-7-methyl-5-(1H-pyrrole-2-carbonyl)-4,5,6,7-tetrahydro-1H-pyrazolo[4,3-c]pyridine-3-carboxamide] |
| 27 | 5 | – | C=CC(=O)N1CCc2ccc(NC(=O)c3nn(Cc4ccc(F)cc4)c4c3CN(C(=O)c3ccc[nH]3)CC4C)cc21 (stereo not shown) [ISO-2-31, N-(1-acryloylindolin-6-yl)-1-(4-fluorobenzyl)-7-methyl-5-(1H-pyrrole-2-carbonyl)-4,5,6,7-tetrahydro-1H-pyrazolo[4,3-c]pyridine-3-carboxamide] |
| 4 | 0.5 | – | C=CC(=O)Nc1ccc2c(Cn3nc(C(=O)Nc4cccc(C)c4)c4c3C(C)CN(C(=O)c3ccc[nH]3)C4)cccc2c1 (stereo not shown) [ISO-2-38, 1-((6-acrylamidonaphthalen-1-yl)methyl)-7-methyl-5-(1H-pyrrole-2-carbonyl)-N-(m-tolyl)-4,5,6,7-tetrahydro-1H-pyrazolo[4,3-c]pyridine-3-carboxamide] |
| 21 | 10 | 2140 | C=CC(=O)Nc1ccc(NC(=O)c2nn(Cc3ccc(F)cc3)c3c2CN(C(=O)c2ccc[nH]2)C[C@H]3C)cc1 [ISO-2-25-R] |
| 61 | 14 | – | C=CC(=O)Nc1cc(NC(=O)c2nn(Cc3ccc(F)cc3)c3c2CN(C(=O)c2ccc[nH]2)CC3C)ccc1Cl (stereo not shown) [ISO-2-29, N-(3-acrylamido-4-chlorophenyl)-1-(4-fluorobenzyl)-7-methyl-5-(1H-pyrrole-2-carbonyl)-4,5,6,7-tetrahydro-1H-pyrazolo [4,3-c]pyridine-3-carboxamide] |
| > 10000 | > 10000 | > 10000 | C=CC(=O)N1CCC(NC(=O)c2nn(Cc3ccc(F)cc3)c3c2CN(C(=O)c2ccc[nH]2)CC3C)CC1 (stereo not shown) [ISO-2-26, N-(1-acryloylpiperidin-4-yl)-1-(4-fluorobenzyl)-7-methyl-5-(1H-pyrrole-2-carbonyl)-4,5,6,7-tetrahydro-1H-pyrazolo[4,3-c]pyridine-3-carboxamide] |
| 5550 | 149 | > 10000 | C=CC(=O)Nc1ccc(Cn2nc(C(=O)Nc3cccc(C)c3)c3c2C(C)CN(C(=O)c2ccc[nH]2)C3)cc1C (stereo not shown) [ISO-2-28, 1-(4-acrylamido-3-methylbenzyl)-7-methyl-5-(1H-pyrrole-2-carbonyl)-N-(m-tolyl)-4,5,6,7-tetrahydro-1H-pyrazolo[4,3-c]pyridine-3-carboxamide] |
| 8 | 1 | – | C=CC(=O)Nc1cc(NC(=O)c2nn(Cc3ccc(F)cc3)c3c2CN(C(=O)c2ccc[nH]2)CC3C)ccc1OC (stereo not shown) [ISO-2-30, N-(3-acrylamido-4-methoxyphenyl)-1-(4-fluorobenzyl)-7-methyl-5-(1H-pyrrole-2-carbonyl)-4,5,6,7-tetrahydro-1H-pyrazolo [4,3-c]pyridine-3-carboxamide] |
| 7720 | 1360 | – | C=CC(=O)Nc1ccc(NC(=O)c2nn(Cc3ccc(F)cc3)c3c2CN(C(=O)c2ccc[nH]2)C[C@@H]3C)cc1 [ISO-2-25-S] |
| 1180 | 839 | – | C=CC(=O)Nc1cc(NC(=O)c2nn(Cc3ccc(F)cc3)c3c2CN(C(=O)c2ccc[nH]2)C[C@@H]3C)ccc1OC [ISO-2-30-S] |
| 8 | 0.5 | – | Cc1cccc(NC(=O)c2nn(Cc3ccc(F)c(NC(=O)/C=C/CCl)c3)c3c2CN(C(=O)c2ccc[nH]2)CC3C)c1 (stereo not shown) [ISO-2-36, (E)-1-(3-(4-chlorobut-2-enamido)-4-fluorobenzyl)-7-methyl-5-(1H-pyrrole-2-carbonyl)-N-(m-tolyl)-4,5,6,7-tetrahydro-1H-pyrazolo[4,3-c]pyridine-3-carboxamide] |
| 14 | 6 | 2210 | C=CC(=O)Nc1cc(NC(=O)c2nn(Cc3ccc(F)cc3)c3c2CN(C(=O)c2ccc[nH]2)C[C@H]3C)ccc1OC [ISO-2-30-R] |
| 127 | 25 | > 10000 | C=CC(=O)Nc1cccc(Cn2nc(C(=O)Nc3cccc(C)c3)c3c2C(C)CN(C(=O)c2ccc[nH]2)C3)c1 (stereo not shown) [ISO-2-27, 1-(3-acrylamidobenzyl)-7-methyl-5-(1H-pyrrole-2-carbonyl)-N-(m-tolyl)-4,5,6,7-tetrahydro-1H-pyrazolo[4,3-c]pyridine-3-carboxamide] |

Source: patent US20210101899A1, “INHIBITORS OF MUTANT ISOCITRATE DEHYDROGENASES AND COMPOSITIONS AND METHODS THEREOF” (IsoCure Biosciences Inc., priority 2016, published 2021)
